In a melting point compilation (Tetko et al.; mined from patent text by program, amines drawn as free bases though some values may be those of a salt):

Row | melting point [°C] | SMILES
1 | 110 to 112 | CC(C)Cc1nn(C)c(=O)c2cn(Cc3cccc4ccccc34)cc12
2 | 158 to 160 | Cn1nc(NC(=O)Cc2ccccc2)c(-c2ccncc2)c1-c1ccc(F)cc1
3 | 240 to 243 | CCn1cc(C(=O)OCC(=O)O)c(=O)c2cc3c(cc21)OCO3
4 | 55 to 57 | CCOc1cccc2cc(C(=O)c3cc(OC)ccc3OC)oc12
5 | 124 to 129 | CC(C)(C)OC(=O)N1CCCN(c2ccncc2)CC1
6 | 148 to 150 | COc1ccc(CCNC(=O)C(=O)NCc2ccc([N+](=O)[O-])cc2)cc1OC1CCCC1
7 | 25 | C=Cc1ccc([C@@H](C)N=Cc2cccc(C)n2)cc1
8 | 204 | COc1ccc(S(=O)(=O)C2(C(=O)O)CCN(C)CC2)cc1
9 | 45 to 46 | ClCCOc1ccc2c(c1)CCC2
10 | 218 to 219 | Nc1ccc(S(=O)(=O)c2cnc(N)s2)cc1
11 | 293 to 295 | CC(C)Oc1ccccc1-c1cc(=O)c2cc(-c3nnn[nH]3)ccc2o1
12 | > 250 | N#CC1=C(C2CC2)Nc2n[nH]cc2C1c1cccc(Cl)c1Cl (stereo not given)
13 | 135 to 145 | CC(=CC(=O)O)c1ccc2[nH]cc(-c3cc(C(C)(C)C)cc(C(C)(C)C)c3OCC(F)F)c2c1
14 | 86 | COC(=O)c1cc(OCC=C(Cl)Cl)cc(Cl)c1O
15 | 161 to 162 | CN(C)Cc1c[nH]c2ncccc12
16 | 82 | CC(=O)CC(=O)C=Cc1ccccc1
17 | 104 to 106 | C#CCOc1ccc2cnn(C[C@H](C)NC(=O)OCc3ccccc3)c2c1
18 | 259 to 263 | Cn1cc(-c2ccc(Br)cc2)c(=O)c(-c2cccc(C(=O)O)c2)c1
19 | 208 to 210 | O=C(O)C1C2CCC(O2)C1C(=O)NCCN1C(=O)NC(c2ccccc2)(c2ccccc2)C1=O (stereo not given)
20 | 77 to 78 | CCOC(=O)C1=C(COCCCN(C)C)NC(C)=C(C(=O)OC)C1c1ccccc1Cl (stereo not given)
21 | 139 | CCCC12CSC(SC1)SC2
22 | 78 | CCOC(=O)C(=CNC(C)(C)C)C(=O)c1cc(F)c(Cl)nc1Cl
23 | 204 to 205 | COc1ccc(-c2coc3ccc(-c4nnc(S)o4)cc23)cc1
24 | 112 to 113 | COC(=O)c1nn(C)nc1CO
25 | 168 | COC1(c2cc(F)cc(OCc3ccc(-n4ccnc4C)cc3)c2)CCOCC1

Row | melting point [°C] | SMILES
26 | 203 to 204 | Nc1cccc(C(=O)O)c1NCc1ccccc1Cl
27 | 174 | CC(=O)OC1CSC(Oc2cncc(Br)c2)C(OC(C)=O)C1OC(C)=O (stereo not given)
28 | 43 to 44 | O=c1ccoc2cc(OS(=O)(=O)C(F)(F)F)ccc12
29 | 159 to 161 | CC(=O)c1noc2cc(O)ccc12
30 | > 220 | N#CC(C(=O)c1ccc(-c2nnn[nH]2)cc1)=C1CCCCN1
31 | 159 | COC(=O)C1(Cl)CC(=O)N(c2ccc(Cl)cc2)C1=C(Cl)Cl (stereo not given)
32 | 270 to 278 | Cc1c(Cc2ccc(Cl)cc2)c(=O)oc2cc(O)cc(O)c12
33 | 99 to 101 | CC1(C)C=Cc2ccc(F)c(C#N)c2O1
34 | 185 to 186 | CC(CC(=O)Nc1cc(-c2ccnc3c(C(=O)c4cccs4)cnn23)ccc1F)C(F)(F)F (stereo not given)
35 | 195 to 197 | Nc1ncnc2ncn([C@H]3C=C[C@@H](O)C3)c12 (racemic)
36 | 180 | COc1ccc(OC)c(C2(OC)C(=O)Nc3ccc(Cl)cc32)c1 (stereo not given)
37 | 156 to 158 | CCOCC1=NNC(=O)N(N=Cc2cccnc2)C1
38 | 140 | N#Cc1cnnc2ccccc12
39 | 45 to 47 | CCCCCC(=O)C=Cc1ccc(CCCCCCCCCC(=O)OC)s1
40 | 141 to 142 | CC(=O)Oc1ccc2c(ccc3ccccc32)c1
41 | 145 | O=C(Nc1ccccc1OCCCBr)c1cccc2[nH]ccc12
42 | 120 to 122 | CCOC(=O)c1sc2cc(OCc3cccnc3)ccc2c1S(=O)(=O)c1ccccc1
43 | 141 to 143 | C=Cc1ncc2c(c1COC)c1c(OCc3ccccc3)cccc1n2S(=O)(=O)c1ccc(C)cc1
44 | 188 to 189 | COc1ccc2c3c([nH]c2c1)C(=S)C(CC1CCN(C(=O)OC(C)(C)C)CC1)C3 (stereo not given)
45 | 165 to 166 | O=C(Nc1ccc(-n2nc(-c3ccoc3)cc2Cl)cc1)c1ccncc1F
46 | 125 to 127 | CCC(=NOCC=CCl)C1=C(O)CC(c2ccc(NS(C)(=O)=O)cc2)CC1=O (stereo not given)
47 | 125 to 127 | CC(C)n1c(=O)nc(-c2ccc3c(c2)OCO3)c2cc3c(cc21)OCO3
48 | 244 to 252 | O=[N+]([O-])c1[nH]c(-c2c(Cl)cc(C(F)(F)F)cc2Cl)nc1C(F)(F)F
49 | 154 to 155 | COc1ccc(C(=O)Nc2ccc(Cl)c(Cl)c2)cc1Nc1cccc(C(F)(F)F)c1
50 | 111 to 113 | COc1ccc2c(c1)CCC1=C2CCC2(C)C(=O)CC=C12 (stereo not given)

Row | melting point [°C] | SMILES
51 | 69 to 70 | CC(C)c1nn(-c2ccc(Cl)cn2)cc1C=O
52 | 71 to 74 | O=C(CN1CCN2c3ccccc3Cn3cccc3C2C1)c1ccc(Cl)cc1 (stereo not given)
53 | 278 to 280 | CCN1Cn2c(=O)cc(-c3cccc(C(F)(F)F)c3)n3cnc(c23)C1=O
54 | 163 to 164 | CCN(CC)S(=O)(=O)c1ccc(Oc2ccc([N+](=O)[O-])cc2C#N)cc1
55 | 75 to 76 | CCCCCCCCSc1nc(SCCCCCCCC)nc(-c2cc(C)c(O)c(C)c2)n1
56 | 107 to 108 | COc1cc2c(c(OC)c1OC)CCC(Br)C2=O (stereo not given)
57 | 242 | Nc1ccc(-c2noc(-c3cnn4c(C(F)F)cc(-c5ccc(C(F)(F)F)cc5)nc34)n2)cn1
58 | 189 to 191 | COc1cc2c(cc1OC)C(=O)C(c1ccc(F)cc1)C2 (stereo not given)
59 | 126 to 128 | CCOC(=O)c1nc(NCC(c2ccccc2)c2ccccc2)c2ncn([C@@H]3O[C@H](CO)[C@H]4OC(C)(C)O[C@H]43)c2n1
60 | 184 to 187 | O=C1N(c2ccc(C(F)(F)F)cc2)CN2C(c3ccc(Cl)cc3)C(c3ccccc3)CN12 (stereo not given)
61 | 186 to 188 | CC(C)c1nc(-c2ccccc2)n(-c2ccc(F)cc2)c1CO
62 | 53 to 56 | Cc1cc(F)c(F)c(C=O)c1O
63 | 198 to 202 | COc1ccc(-c2cnc(NC(=O)Cc3ccccc3)c(Cc3ccccc3)n2)cc1
64 | 183 to 186 | CCOC(=O)c1c2n(c3cc(Cl)c(F)cc3c1=O)C(COC1CCCCO1)CS2 (stereo not given)
65 | 134 | COc1ccc(C(=O)NCCBr)c([N+](=O)[O-])c1
66 | 107 to 110 | CC(C)C=C(C=NO)c1ccccc1
67 | 163 to 175 | CC(C)(C)OC(=O)CN(C(=O)CNC(=O)Nc1cccc(-c2nnn[nH]2)c1)c1ccccc1C(=O)c1ccccc1
68 | 39 | CN(C)C(=O)N(COCCCl)c1ccc(C(F)(F)F)cc1
69 | 208 to 209 | Cc1cccc2c1C(=O)N(C1(C(=O)Nc3ccc(Cl)cc3)CCCCC1)C2=O
70 | 110 to 112 | Fc1ccc(-c2nccc3c(CCl)cccc23)cc1
71 | 98 to 101 | Cc1cc(-c2cccs2)nc(Nc2ccc(C(C)C)cc2Br)n1
72 | 205 to 207 | CCCCN1CNC(=O)NC1=O
73 | 148 to 151 | COc1ccc(C=Cc2nc(CCl)co2)cc1
74 | 138 | Cc1oc2c(C)c(Cc3ccccc3)c(C3CC(=O)NC(=O)C3)cc2c1C
75 | 199 to 201 | COc1c(Cc2ccccc2)cc(C(N)=O)c2ccccc12

Row | melting point [°C] | SMILES
76 | 71 to 72 | CCOC(=O)CC(O)Cc1ccc([N+](=O)[O-])cc1 (stereo not given)
77 | 83 to 85 | CC(C)C(=O)C(C#N)=C(O)c1ccc(C(F)(F)F)cc1[N+](=O)[O-]
78 | 98 to 100 | Cn1cnc2c1c(=O)n(CCCCCCO)c(=O)n2C
79 | 105 to 106 | N#Cc1cc(C=O)cnc1Br
80 | 108 to 110 | COc1ccc(C=Cc2ccc3cccc(O)c3n2)cc1
81 | 117 to 118 | CC(COc1ccc(C(=O)O)c(O)c1)C[Si](C)(O[Si](C)(C)C)O[Si](C)(C)C (stereo not given)
82 | 184 to 185 | O=C(CCl)Nc1ccc2c(c1NC(=O)c1ccc(F)cc1)C(=O)c1ccccc1C2=O
83 | 167 to 168 | COc1cc(OC)nc(C2OC(=O)c3ncccc32)n1 (stereo not given)
84 | 97 to 98 | COC(=O)c1ccc2sc(C)cc2c1
85 | 130 to 140 | Cc1c(CC2CCc3cc4ccccc4n3C2=O)ncn1Cc1ccccc1 (stereo not given)
86 | 75 to 77 | O=Cc1ccc(-c2ccc(-c3ccco3)o2)o1
87 | 136 to 144 | Nc1nc(NCCc2cc(Br)cs2)nc2c1ncn2C1OC(CO)C(O)C1O (stereo not given)
88 | 69 to 71 | CCOC(=O)CCc1ccc2c(c1)CC(CNC(=O)OC(C)(C)C)CC2 (stereo not given)
89 | 190 to 192 | Cc1oc2cc(C(CC(=O)O)CC(=O)O)ccc2c1C
90 | 226 to 228 | O=C(Nc1ccc(Cl)c(C(F)(F)F)c1)Nc1ccc(-c2ccc(C(F)(F)F)cc2)cc1-c1nnn[nH]1
91 | 172 | CC1=CCCN(C)C1COC(=O)c1c[nH]c2ccccc12 (stereo not given)
92 | 80 to 82 | C[C@H](C(=O)O)c1ccc2cc(OCCCCCCc3ccc(OCc4ccccc4)c(OCc4ccccc4)c3)ccc2c1
93 | 88 to 90 | CCNC1=C(c2ccc(OC)cc2)C(=O)c2cc(OC)ccc21
94 | 205 to 208 | Oc1cccc(CN2CCCCC2c2nc(-c3ccccc3)c(-c3ccccc3)o2)c1 (stereo not given)
95 | 191 to 193 | NC(=O)c1cnn(-c2ccc(Cl)cc2Cl)c1C(F)(F)F
96 | 132 to 134 | CCOC(=O)c1c(N)n(C)c2ccccc12
97 | 246 | N#Cc1cn(-c2cccc(F)c2)c(=O)[nH]c1=O
98 | 63 to 64 | CC(C)Sc1nc(-c2nn(C)c(OC(F)F)c2Cl)c(F)cc1Cl
99 | 55 to 57 | COC(=O)c1cnccc1NC(=O)C(C)CSC(C)=O (stereo not given)

Row | SMILES | melting point [°C]
100 | c1cncc(CC[C@H]2CNCCN2)c1 | 104 to 110
101 | Cc1cc(C2=NOC(c3cc(Cl)cc(Cl)c3)(C(F)(F)F)C2)ccc1C(=O)Cl (stereo not given) | 140 to 143
102 | OCc1ccc(C23CNCC2C3)cc1 (stereo not given) | 80 to 82
103 | CCCC(c1ccc(C)cc1)n1cncc1C(=O)OC (stereo not given) | 141 to 143
104 | CC1Cc2ccccc2NC1C1=NCCN1 (stereo not given) | 138 to 139
105 | COC(=O)[C@@H]1C[C@H](OC(=O)Nc2ccc([N+](=O)[O-])cc2)C(=O)[C@H]2[C@@]1(C)CC[C@H]1C(=O)O[C@H](c3ccoc3)C[C@]21C | 251 to 253
